The text below walks through data of patent US8304384B2, “Caspase-8 and inflammation, infection and wound healing” (Yeda Research and Development Co., Ltd, priority 2006, dated 2012).

Experiment [1] has as its system Kupffer cells. Kind of experiment: Gadolinium chloride treatment after partial hepatectomy (PHx) in Casp8F/-:Alb-Cre mice. Particulars: 1/3 PHx, 10 mg/kg i.p. on days 10 and 12 after PHx. The format is in vivo. On the procedure: (iii) Partial Hepatectomy and Gadolinium Chloride Administration. Age-matched Casp8^F/−: Alb-Cre mice and Casp8^F/+: Alb-Cre mice were lightly anesthetized with intraperitoneally (i.p.) administered xylazine […] (Chanelle Pharmaceuticals Manufacturing, Loughrea, Galway, Ireland) and ketamine […] (Fort Dodge Animal Health, Fort Dodge, Iowa). It was performed ‘one-third’ (30%) PHx by excising the median lobe of the liver, and ‘two-thirds’ (70%) PHx by excising the median, left, and right upper lobes as described (Higgins et al., 1931 and Greene et al., 2003). Mice were imaged before PHx and afterwards on days 0-56 (every other day during the first week and weekly from then on). On days 10 and 12 after PHx the mice were injected i.p. with gadolinium chloride (Sigma-Aldrich, St. Louis, Mo.) in saline at a dosage of 10 mg/kg.
(iv) MRI Analysis Technique. Magnetic resonance imaging (MRI) experiments were performed using a horizontal 4.7 T Biospec spectrometer (Bruker Medical, Ettlingen, Germany) with a 4.2-cm birdcage coil. Mice were anesthetized (with pentobarbital 30 mg/kg, i.p.) and placed supine with the liver located at the center of the coil. Liver volume was determined from multi-slice coronal and axial T1-weighted spin echo images (repetition time=400 ms; echo time=18 ms; slice thickness=1 mm). In brief, the liver boundary visualized in each slice was outlined using image-processing software (NIH Image). […] The total liver volume was calculated as the summed area of all slices, multiplied by the slice thickness. For each mouse the liver volume was expressed as a percentage of the preoperative liver volume. […]
Cells expressing F4/80 were detected similarly, using rat anti-mouse F4/80 antibody (Serotec Oxford, UK), except that for antigen retrieval the paraffin sections were treated for 3 minutes at room temperature with a solution containing 20 mM Tris (pH 7.5), 0.1% trypsin, and 0.1% calcium chloride. The macrophage content of the livers was determined by quantifying the F4/80 positive areas in the slides using the ImageJ 1.37r software.

Experiment [2] deals with Kupffer cells. Particulars: stated as a known fact, no experiment of the patent described; cited from earlier work.

“Also recorded” adds a separate entry of the source.

With `[Cl][Gd]([Cl])[Cl]` [gadolinium chloride], in the experiment on Kupffer cells [1] (14th day after PHx, 10 mg/kg), the “late (delayed) hepatocyte proliferation, anti-Ki67 stained nuclei in 10 high-power fields” value is listed as “practically wiped out the increase in hepatocyte proliferation; also recorded: arrest of the delayed hepatocyte proliferation” and the “liver volume / excessive increase in liver size (hepatomegaly), MRI scans” value is reported as “curtailed; also recorded: prevention of hepatomegaly”. Further, the “inflammatory cells (macrophages, anti-F4/80 staining) accumulated in the liver” value in the experiment with Kupffer cells [1] (liver examined 14 days after PHx) is given as “substantially decreasing the inflammatory cells that had accumulated”. For the same molecule, in the experiment with Kupffer cells [2], the “hepatocyte proliferation facilitated early after PHx” value is reported as “does not decrease, but rather is enhanced”.
